Assay results published in US4563467A, “Derivatives of N-iminopyridinium betaines having anti-hypertensive and salidiuretic activity and their preparation” (Provesan S.A., priority 1983, dated 1986).
Counter-ions that a name gives are not always drawn. Like-named read-outs stand apart in the source and are kept apart here.

What was measured:
[1] = Diuretic activity (method of Taylor and Topliss): elimination of urine and urine parameters over 8 hours; type: in vivo, Male Sprague-Dawley (HC/CFY) rats; conditions: rat; for ED50: po, from regression of log dose against percentage effect
Experimental: ACTIVITY Method of R. M. Taylor and […]. Med. Pharm. Chem. 1962, 4, 312 Male Sprague-Dawley (HC/CFY) rats weighting between 150 and 200 grams are used. The animals are kept without food and water for 16 hours before the start of the test. The products are administered as a suspension in a 0.5% strength carboxymethylcellulose suspension in a 0.9% strength sodium chloride solution, using a probang, the amount administered being 50 ml/kg of body weight. […] The following parameters are determined in the urine: volume (ml/kg); sodium and potassium (milliequivalents/kg/8 h) (flame photometer); chloride (milliequivalents/kg/8 h) (chloride-meter); pH/8 h (pH-meter) and osmotic pressure (osmotic millimols/kg/8 h) (osmometer). The comparsion animals are given the 0.5% strength carboxymethylcellulose suspension in a 0.9% strength sodium chloride solution in an amount of […] of body weight.

[2] = Acute toxicity, oral, mouse; type: in vivo, CFLP-RE albino mice
Experimental: The product is administered orally in suspension in 5% strength gum arabic to CFLP-RE albino mice weighing 20-25 g and to CFY-RE Sprague-Dawley rats weighing 125-175 g. The volume administered is 25 ml/kg in the mouse except for the maximum dose of 12,800 mg/kg where a volume of 50 ml/kg is administered, and 10 ml/kg in the rat except for the maximum dose of 12,800 mg/kg where a volume of 30 ml/kg is administered.
It was impossible to determine the 50 percent lethal dose since no deaths occurred.

## Cc1cc(C)[n+]([N-]C(=O)c2ccc(Cl)c(S(N)(=O)=O)c2)c(C)c1 [Example 2, 1-[(4-chloro-3-sulfamylbenzoyl)-amino]-2,4,6-trimethylpyridinium hydroxide inner salt]
[1]; 8 h, read-out: ED50, osmotic pressure (m osmol/kg/8 h)
  ED50: 1.2 mg/kg
[1]; 8 h, read-out: ED50, volume of urine (ml/kg/8 h)
  ED50: 4.7 mg/kg
[1]; 40 mg/kg, over 8 hours
  Elimination in the urine: Cl: 11.8 milliequivalents/kg/8 h
  Elimination in the urine: K: 1.7 milliequivalents/kg/8 h
  Elimination in the urine: Na: 9.1 milliequivalents/kg/8 h
  Osmotic pressure of urine: 29.7 osmotic millimols/kg/8 h
  Urine pH: 6.0
[1]; 40 mg/kg, probang, 1 h
  Elimination of urine, 1 h: 10.4 mL/kg
[1]; 40 mg/kg, probang, 2 h
  Elimination of urine, 2 h: 22.3 mL/kg
[1]; 40 mg/kg, probang, 3 h
  Elimination of urine, 3 h: 30.2 mL/kg
[1]; 40 mg/kg, probang, 4 h
  Elimination of urine, 4 h: 36.0 mL/kg
[1]; 40 mg/kg, probang, 6 h
  Elimination of urine, 6 h: 41.5 mL/kg
[1]; 40 mg/kg, probang, 8 h
  Elimination of urine, 8 h: 45.6 mL/kg
[2]; female, 400 mg/kg
  Mortality: 0/4
[2]; female, 800 mg/kg
  Mortality: 0/4
[2]; male, 400 mg/kg
  Mortality: 0/4
[2]; male, 800 mg/kg
  Mortality: 0/4
